Laboratory results as given in patent US12195706B2, “Formation of arrays of planar intestinal crypts possessing a stem/proliferative cell compartment and differentiated cell zone” (THE UNIVERSITY OF NORTH CAROLINA AT CHAPEL HILL, priority 2018, dated 2025).

Columns and labels:
[1] = test system: mouse intestinal epithelial cells; assay: Effect of short chain fatty acids on proliferation and differentiation on planar crypt arrays; assay type: cell-based; conditions: day 3-4 (DM/EM); for ALP activity relative to the control / normalized area of EdU+ cells compared to control without short chain fatty acid: 24 mM acetate, 6 mM propionate or 1 mM butyrate in DM luminal medium; for ALP activity relative to the control: ALP+ area normalized to Hoechst 33342 area; for normalized area of EdU+ cells compared to control without short chain fatty acid: EdU+ area normalized to Hoechst 33342 area
Experimental: EM was replaced with fresh EM every 2 days. The cells were sub-cultured every 3-5 days by degrading collagen with collagenase and dissociating the cells with 0.5 mM EDTA into clumps of cells. […] When placing cells onto the surface of the microdevice, the cell suspension was diluted 1 to 2 in EM and overlaid onto the microdevice surface. The cells were cultured for 2 days with EM placed into the luminal and basal reservoirs of the Transwell cassette. On day 2, the luminal and basal media were changed as described in Table 3, below, and the cells incubated for a day. On day 3, the luminal and basal media were replaced with fresh media (identical to that from day 2 replacement) and the cells incubated for another day. In some experiments, the medium in the luminal compartment was replaced differentiation medium (DM, see Table 2) which is similar to EM but lacking in key growth factors required to support intestinal stem cells.
Cells in the S phase of the cell cycle were incubated with a pulse of 5-ethynyl-2′-deoxyuridine (EdU) pulse following the manufacturers' protocols (Click-iT EdU Alexa Fluor 647 Imaging kit, C10340, Thermo Fisher Scientific, Waltham, Massachusetts, United States of America). EdU is a nucleotide analog incorporated into DNA as it is replicated in S phase. In brief, EdU (10 μM) was added to the luminal and basal media and the cells were incubated for 3 h at 37° C. The cells then were washed with PBS and fixed with 4% paraformaldehyde in PBS for 15 min and permeabilized with 0.5% Triton-X for 20 min at 25° C. EdU incorporated into cellular DNA was visualized by reaction with Alexa 647 via click chemistry following the manufacturer's protocol (Click-iT EdU Alexa Fluor 647 Imaging kit, C10340, Thermo Fisher Scientific, Waltham, Massachusetts, United States of America).
Cell monolayers were assayed for alkaline phosphatase (ALP) activity on day 4 of culture by incubation with ALP substrate mixture (Vector Red AP substrate kit, SK-5100, Vector Laboratories Inc., Burlingame, California, United States of America) in Tris buffer (pH 8.4) for 30 min at 37° C. Then cells were washed with PBS, fixed and permeabilized as described above. To label cell DNA, Hoechst 33342 (2 μg/mL, B2261, Sigma Aldrich, St. Louis, Missouri, United States of America) was incubated with cells (1 h, 25° C.).
The […] ® insert (Corning, Inc., Corning, New York, United States of America) with cell layer from the microdevice was placed into a 12-well plate under PBS and imaged using a FLUOVIEW® FV3000® confocal microscope (Olympus Corporation, Tokyo, Japan) confocal microscope (10×, objective, numerical aperture of 0.4). Alexa 647, Vector-Red-ALP, and Hoechst 33342 were excited with a 640, 561, and 405 nm laser, respectively and the fluorescence emission was collected at 650-750 nm, 570-590 nm, and 430-470 nm, respectively. The images were analyzed with the Fiji software package. […] For all experiments, the numbers of sample sizes were estimated using a statistical power analysis based on the data from Wang et al. (Cellular and Molecular Gastroenterology and Hepatology, 2017, 4, 165-182) measuring EdU+ and ALP activities under varying conditions (α=0.05, β=0.85) using G*Power. […] A one-way ANOVA analysis was used for all statistical analyses of data obtained from the fluorescence microscopy images.

[2] = test system: intestinal tumor cell lines; conditions: cited from earlier work

| SMILES | ALP activity relative to the control [1] | normalized area of EdU+ cells compared to control without short chain fatty acid [1] | decrease of the number of Hoechst 33342+ cells per crypt ([1]; 1 mM butyrate in DM luminal medium, vs control crypts, p<0.001) | proliferation in intestinal tumor cell lines [2] |
| --- | --- | --- | --- | --- |
| CC(=O)O [acetate] | significantly decreased | significantly increased | – | – |
| CCCC(=O)O [butyrate] | – | – | about 17% | – |
| CCC(=O)O [propionate] | significantly increased | significantly decreased | – | suppress proliferation |
